Consider 2 compounds from patent US7067522B2, “2,4,DI (hetero-) arylamino (-oxy)-5-substituted pyrimidines as antineoplastic agents” (AstraZeneca AB, priority 2000, dated 2006).

The target in assay [1] is T1, human Focal Adhesion Kinase (FAK) (Homo sapiens, UniProt Q05397).
T1 construct: FAK (full length human cDNA described by Andre et al); made in house; host or cells: Sf21 insect cells, baculovirus (pFastbac 1); cleared cell lysate used as enzyme stock
The assay can be described thus: FAK3 Kinase Inhibition Assay (in vitro enzyme assay). The settings on record: read-out: FAK inhibitory activity IC50. The class given is biochemical. The text has this: FAK3 Kinase Inhibition Assay
This assay determines the ability of a test compound to inhibit tyrosine kinase activity of human Focal Adhesion Kinase (FAK).
Active FAK protein has been previously expressed in a baculovirus system using a similar N-terminal 6-histidine tag (Protein Expression And Purification, 1996, 7: 12–18). The human FAK cDNA was cloned into the baculovirus transplacement vector, pFastbac 1 (Life Technologies), and the recombinant construct was co-transfected into insect cells (for example Spodoptera frugiperda 21(Sf21)) with viral DNA to prepare recombinant baculovirus (details of the methods for the assembly of recombinant DNA molecules and the preparation and use of recominant baculovirus can be found in standard texts for example Sambrook et al, 1989, Molecular cloning-A Laboratory Manual, 2nd edition, Cold Spring Harbour Laboratory Press and O'Reilly et al, 1992, Baculovirus Expression Vectors-A Laboratory Manual, W. H. Freeman and Co, New York. Details specific to the use of the pFastbac (‘Bac to Bac’) system are provided in Anderson et al., 1995, FOCUS (Life Technologies Bulletin Magazine), 17, p53.)
For expression of biologically active human FAK protein, Sf21 cells were infected with plaque-pure FAK recombinant virus at a multiplicity of infection of 3 and harvested 48 hours later. […]

Another assay has as its target T2, CDK4/Cyclin D1 (Homo sapiens, UniProt P11802).
T2 construct: made in house; host or cells: Sf21 insect cells, baculovirus co-infection (pVL1393)
Description: CDK4 Inhibition Assay (Scintillation Proximity Assay, GST-Retinoblastoma substrate). It is filed as biochemical. The settings on record: in vitro kinase assay, 0.2 μM ATP; read-out: CDK4 inhibitory activity IC50. The protocol:
The compounds were tested in an in vitro kinase assay in 96 well format using Scintillation Proximity Assay (SPA-obtained from Amersham) for measuring incorporation of [γ-33-P]-Adenosine Triphosphate into a test substrate (GST-Retinoblastoma). In each well was placed the compound to be tested (diluted in DMSO and water to correct concentrations) and in control wells either p16 as an inhibitor control or DMSO as a positive control.
Approximately 0.5 μl of CDK4/Cyclin D1 partially-purified enzyme (amount dependent on enzyme activity) diluted in 25 μl incubation buffer was added to each well then 20 μl of GST-Rb/ATP/ATP33 mixture (containing 0.5 μg GST-Rb and 0.2 μM ATP and 0.14 μCi [γ-33-P]-Adenosine Triphosphate), and the resulting mixture shaken gently, then incubated at room temperature for 60 minutes.
To each well was then added 150 μL stop solution containing (0.8 mg/well of Protein A-PVT SPA bead (Amersham)), 20 pM/well of Anti-Glutathione Transferase, Rabbit IgG (obtained from Molecular Probes), 61 mM EDTA and 50 mM HEPES pH 7.5 containing 0.05% sodium azide.
The plates were sealed with Topseal-S plate sealers, left for two hours then spun at 2500 rpm, 1124 xg., for 5 minutes. The plates were read on a Topcount for 30 seconds per well. […]
(Scintillation proximity formats need no separation of bound from free tracer.)

T2 sequence (P11802 whole entry): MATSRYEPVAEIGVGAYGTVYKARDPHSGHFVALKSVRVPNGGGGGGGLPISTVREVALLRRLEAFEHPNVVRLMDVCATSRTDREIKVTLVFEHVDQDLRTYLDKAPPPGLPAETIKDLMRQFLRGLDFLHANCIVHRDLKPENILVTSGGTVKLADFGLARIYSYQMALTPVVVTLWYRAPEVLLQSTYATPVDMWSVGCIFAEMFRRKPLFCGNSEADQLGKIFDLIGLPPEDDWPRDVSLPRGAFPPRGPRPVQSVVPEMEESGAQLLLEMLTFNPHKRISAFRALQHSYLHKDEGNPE
T2 sequence (P24385 whole entry partner): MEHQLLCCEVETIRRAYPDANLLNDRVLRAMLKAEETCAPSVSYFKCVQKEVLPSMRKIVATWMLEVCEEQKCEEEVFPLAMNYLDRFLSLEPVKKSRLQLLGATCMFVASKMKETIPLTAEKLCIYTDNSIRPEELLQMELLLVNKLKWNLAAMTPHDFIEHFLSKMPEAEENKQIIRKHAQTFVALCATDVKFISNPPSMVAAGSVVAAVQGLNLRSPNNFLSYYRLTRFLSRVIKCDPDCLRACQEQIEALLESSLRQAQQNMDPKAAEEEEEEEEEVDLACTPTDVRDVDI
T1 sequence (Q05397 whole entry): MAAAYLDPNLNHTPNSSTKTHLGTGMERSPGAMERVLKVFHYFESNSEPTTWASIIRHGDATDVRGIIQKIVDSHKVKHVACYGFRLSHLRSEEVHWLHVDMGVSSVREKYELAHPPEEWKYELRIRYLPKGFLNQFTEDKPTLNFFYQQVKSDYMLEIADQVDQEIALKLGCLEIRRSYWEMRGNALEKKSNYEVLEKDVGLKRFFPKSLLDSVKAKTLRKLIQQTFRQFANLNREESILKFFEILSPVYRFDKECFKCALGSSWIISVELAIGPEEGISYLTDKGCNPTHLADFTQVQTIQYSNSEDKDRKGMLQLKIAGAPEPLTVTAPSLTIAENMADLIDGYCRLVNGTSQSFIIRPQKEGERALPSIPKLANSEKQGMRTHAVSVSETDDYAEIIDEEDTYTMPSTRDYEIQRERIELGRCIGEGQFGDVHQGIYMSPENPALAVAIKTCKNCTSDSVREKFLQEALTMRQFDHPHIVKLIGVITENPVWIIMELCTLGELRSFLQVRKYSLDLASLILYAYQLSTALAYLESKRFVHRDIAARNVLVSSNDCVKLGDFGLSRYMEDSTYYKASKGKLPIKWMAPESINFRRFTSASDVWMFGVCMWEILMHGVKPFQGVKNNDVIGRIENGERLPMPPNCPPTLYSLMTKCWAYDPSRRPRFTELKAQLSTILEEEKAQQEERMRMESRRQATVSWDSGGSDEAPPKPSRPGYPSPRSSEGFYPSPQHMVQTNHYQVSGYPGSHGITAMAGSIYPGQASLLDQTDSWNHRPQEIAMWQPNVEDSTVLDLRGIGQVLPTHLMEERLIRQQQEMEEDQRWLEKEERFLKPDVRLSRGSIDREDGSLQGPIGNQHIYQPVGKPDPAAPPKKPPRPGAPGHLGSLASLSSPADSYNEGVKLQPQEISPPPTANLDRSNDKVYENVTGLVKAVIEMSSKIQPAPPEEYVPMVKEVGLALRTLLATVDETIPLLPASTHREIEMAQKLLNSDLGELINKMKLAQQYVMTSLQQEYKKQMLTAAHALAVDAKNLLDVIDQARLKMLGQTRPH

In general, IC50 refers to the midpoint of a concentration-inhibition curve. For the compound `CCN(CC)CCOc1ccc(Nc2ncc(Br)c(Nc3ccccc3)n2)cc1` [Example 25], the IC50 in assay [1] stood at 218 nM.

In the case of `OCCOCc1ccc(Nc2ncc(Br)c(Nc3ccccc3)n2)cc1` [Example 31, 4-Anilino-5-bromo-2-[4-(2-hydroxyethoxy)methylanilino]pyrimidine], the IC50 on CDK4/Cyclin D1 came out at 679 nM.
